Measurements: ChEMBL document CHEMBL5465560, “Selectivity Literature for EUbOPEN Chemogenomic Library” (2024)

Legend:
[1] = molecular target: NT-3 growth factor receptor (Homo sapiens, UniProt Q16288); settings: at 10 µM
[2] = tested on: Epidermal growth factor receptor (Homo sapiens), P00533 [UNDEFINED MUTATION]; experiment: Selectivity interaction (Ambit KINOMEscan and KiNATiv profiling in Jurkat cells) EUB0000090b EGFR; assay type: cell-based; settings: at 1 µM
[3] = molecular target: Non-receptor tyrosine-protein kinase TYK2 (Homo sapiens, UniProt P29597); experiment: Selectivity interaction (Ambit KINOMEscan and KiNATiv profiling in Jurkat cells) EUB0000090b TYK2; assay type: cell-based; settings: at 1 µM
[4] = molecular target: Histone-lysine N-methyltransferase SETDB1 (Homo sapiens) (UniProt Q15047); experiment: Selectivity interaction (Methyltransferase screen (radiometric assays, panel of 8 PRMTs, 21 protein lysine methyltransferases, 3 DNA methyltransferases, and one RNA methyltransferase)) EUB0000272b SETDB1
[5] = molecular target: Histone-lysine N-methyltransferase ASH1L (Homo sapiens) (UniProt Q9NR48); experiment: Selectivity interaction (Methyltransferase screen (radiometric assays, panel of 8 PRMTs, 21 protein lysine methyltransferases, 3 DNA methyltransferases, and one RNA methyltransferase)) EUB0000271b ASH1L
[6] = molecular target: T1, Serine/threonine-protein kinase Chk1 (Homo sapiens) (UniProt O14757); experiment: Selectivity interaction (KinomeScan (DiscoverX)) EUB0000229b CHEK1; settings: at 10 µM
T1 sequence (whole entry): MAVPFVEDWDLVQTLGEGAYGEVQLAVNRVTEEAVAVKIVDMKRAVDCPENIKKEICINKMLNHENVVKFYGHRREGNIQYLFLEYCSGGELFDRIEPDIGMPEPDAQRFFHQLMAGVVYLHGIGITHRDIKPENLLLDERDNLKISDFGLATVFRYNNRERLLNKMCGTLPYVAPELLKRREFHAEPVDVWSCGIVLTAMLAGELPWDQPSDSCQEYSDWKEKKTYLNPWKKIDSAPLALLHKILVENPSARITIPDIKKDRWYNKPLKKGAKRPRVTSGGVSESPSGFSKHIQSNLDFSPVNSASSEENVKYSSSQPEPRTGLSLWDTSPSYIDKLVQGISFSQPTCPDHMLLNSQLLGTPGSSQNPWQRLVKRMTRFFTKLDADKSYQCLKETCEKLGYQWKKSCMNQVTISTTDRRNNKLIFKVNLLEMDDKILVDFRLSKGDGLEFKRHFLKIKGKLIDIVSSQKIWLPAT

[7] = molecular target: Protein polybromo-1 (Homo sapiens) (UniProt Q86U86); experiment: Selectivity interaction (Human bromodomain panel (DSF assay)) EUB0000233b PBRM1
[8] = molecular target: Glycogen synthase kinase-3 alpha (Homo sapiens, UniProt P49840); experiment: Selectivity interaction (KinomeScan (DiscoverX)) EUB0000045b GSK3A
Sequence of Glycogen synthase kinase-3 alpha (P49840 2-483 limits assumed): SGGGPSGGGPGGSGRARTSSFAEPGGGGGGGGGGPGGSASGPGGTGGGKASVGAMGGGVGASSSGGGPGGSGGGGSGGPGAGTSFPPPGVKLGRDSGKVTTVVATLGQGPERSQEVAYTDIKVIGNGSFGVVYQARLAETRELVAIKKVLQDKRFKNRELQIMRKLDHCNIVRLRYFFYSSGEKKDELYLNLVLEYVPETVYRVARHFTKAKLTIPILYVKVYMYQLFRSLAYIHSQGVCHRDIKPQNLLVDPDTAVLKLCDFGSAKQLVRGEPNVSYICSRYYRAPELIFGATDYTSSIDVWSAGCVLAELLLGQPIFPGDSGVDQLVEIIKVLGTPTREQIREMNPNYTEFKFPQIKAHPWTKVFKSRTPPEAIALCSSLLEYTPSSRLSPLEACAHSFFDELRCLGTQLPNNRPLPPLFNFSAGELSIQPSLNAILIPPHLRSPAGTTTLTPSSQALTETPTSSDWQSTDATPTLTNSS

[9] = tested on: Phosphatidylinositol 4,5-bisphosphate 3-kinase catalytic subunit alpha isoform (Homo sapiens), P42336 [E542K]; experiment: (§1) Selectivity interaction (KinomeScan (DiscoverX)) EUB0001619a PIK3CA; settings: at 1 µM
Sequence of Phosphatidylinositol 4,5-bisphosphate 3-kinase catalytic subunit alpha isoform (Homo sapiens), P42336 [E542K] (P42336 whole entry E542K, canonical isoform): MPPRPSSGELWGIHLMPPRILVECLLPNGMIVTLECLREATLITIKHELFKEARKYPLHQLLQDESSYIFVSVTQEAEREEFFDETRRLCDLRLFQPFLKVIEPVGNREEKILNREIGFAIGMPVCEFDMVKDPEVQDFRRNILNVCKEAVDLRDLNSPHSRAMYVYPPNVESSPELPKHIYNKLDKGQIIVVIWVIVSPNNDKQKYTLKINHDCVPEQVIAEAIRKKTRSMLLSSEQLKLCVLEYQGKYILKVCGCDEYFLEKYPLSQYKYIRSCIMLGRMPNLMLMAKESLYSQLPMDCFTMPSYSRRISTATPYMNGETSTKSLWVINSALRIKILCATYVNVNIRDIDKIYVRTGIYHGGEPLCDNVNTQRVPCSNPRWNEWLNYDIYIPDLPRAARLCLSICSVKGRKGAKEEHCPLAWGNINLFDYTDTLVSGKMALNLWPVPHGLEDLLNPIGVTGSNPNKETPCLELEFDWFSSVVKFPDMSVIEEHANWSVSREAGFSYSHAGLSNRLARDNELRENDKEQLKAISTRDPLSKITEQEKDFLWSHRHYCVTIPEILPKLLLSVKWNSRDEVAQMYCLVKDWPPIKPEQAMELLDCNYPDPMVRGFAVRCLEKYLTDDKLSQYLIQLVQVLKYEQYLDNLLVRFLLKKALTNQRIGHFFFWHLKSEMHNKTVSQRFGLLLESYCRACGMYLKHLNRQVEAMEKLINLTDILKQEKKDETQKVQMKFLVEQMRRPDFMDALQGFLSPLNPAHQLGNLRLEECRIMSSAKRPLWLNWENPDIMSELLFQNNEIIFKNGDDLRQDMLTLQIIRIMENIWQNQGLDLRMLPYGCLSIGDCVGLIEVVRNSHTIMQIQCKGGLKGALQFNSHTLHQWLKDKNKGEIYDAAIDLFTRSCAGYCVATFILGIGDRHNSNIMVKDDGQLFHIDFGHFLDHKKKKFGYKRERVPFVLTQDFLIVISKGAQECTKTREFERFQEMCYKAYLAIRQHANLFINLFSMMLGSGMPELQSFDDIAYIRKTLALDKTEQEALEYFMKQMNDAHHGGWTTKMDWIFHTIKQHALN

[10] = tested on: Phosphatidylinositol 4,5-bisphosphate 3-kinase catalytic subunit alpha isoform (Homo sapiens), P42336 [Q546K]; experiment: as §1; settings: at 1 µM
[11] = tested on: Phosphatidylinositol 4,5-bisphosphate 3-kinase catalytic subunit alpha isoform (Homo sapiens), P42336 [I800L]; experiment: as §1; settings: at 1 µM
[12] = tested on: Phosphatidylinositol 4,5-bisphosphate 3-kinase catalytic subunit alpha isoform (Homo sapiens), P42336 [M1043I]; experiment: as §1; settings: at 1 µM
[13] = tested on: Phosphatidylinositol 4,5-bisphosphate 3-kinase catalytic subunit alpha isoform (Homo sapiens), P42336 [H1047L]; experiment: as §1; settings: at 1 µM
[14] = tested on: Phosphatidylinositol 4,5-bisphosphate 3-kinase catalytic subunit alpha isoform (Homo sapiens), P42336 [H1047Y]; experiment: as §1; settings: at 1 µM
Sequence of Phosphatidylinositol 4,5-bisphosphate 3-kinase catalytic subunit alpha isoform (Homo sapiens), P42336 [H1047Y] (P42336 whole entry H1047Y, canonical isoform): as the sequence (P42336 whole entry E542K, canonical isoform) above, with K542E, H1047Y counted along it

[15] = molecular target: Phosphatidylinositol 4,5-bisphosphate 3-kinase catalytic subunit alpha isoform (Homo sapiens) (UniProt P42336); experiment: as §1; settings: at 1 µM
[16] = tested on: Phosphatidylinositol 4,5-bisphosphate 3-kinase catalytic subunit alpha isoform (Homo sapiens), P42336 [C420R]; experiment: as §1; settings: at 1 µM
[17] = tested on: Phosphatidylinositol 4,5-bisphosphate 3-kinase catalytic subunit alpha isoform (Homo sapiens), P42336 [E545A]; experiment: as §1; settings: at 1 µM
[18] = tested on: Phosphatidylinositol 4,5-bisphosphate 3-kinase catalytic subunit alpha isoform (Homo sapiens), P42336 [E545K]; experiment: as §1; settings: at 1 µM
[19] = molecular target: Wee1-like protein kinase 2 (Homo sapiens) (UniProt P0C1S8); experiment: Selectivity interaction (KinomeScan (DiscoverX)) EUB0000618a WEE2; settings: at 10 µM
Sequence of Wee1-like protein kinase 2 (Homo sapiens) (P0C1S8 whole entry, looked up): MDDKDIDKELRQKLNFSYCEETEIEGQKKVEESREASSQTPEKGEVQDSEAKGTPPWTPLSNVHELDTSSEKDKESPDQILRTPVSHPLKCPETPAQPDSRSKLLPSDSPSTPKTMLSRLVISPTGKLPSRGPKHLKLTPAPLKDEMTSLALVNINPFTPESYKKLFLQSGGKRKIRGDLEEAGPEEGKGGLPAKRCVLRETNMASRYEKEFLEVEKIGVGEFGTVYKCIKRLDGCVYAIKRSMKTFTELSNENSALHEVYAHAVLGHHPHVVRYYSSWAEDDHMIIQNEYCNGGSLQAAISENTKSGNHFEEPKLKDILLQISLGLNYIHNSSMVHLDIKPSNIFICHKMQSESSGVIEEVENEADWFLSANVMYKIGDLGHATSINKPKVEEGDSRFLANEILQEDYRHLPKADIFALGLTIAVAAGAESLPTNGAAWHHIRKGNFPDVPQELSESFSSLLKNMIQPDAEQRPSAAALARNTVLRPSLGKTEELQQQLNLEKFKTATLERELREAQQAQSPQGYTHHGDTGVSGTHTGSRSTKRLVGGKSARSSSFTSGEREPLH

[20] = molecular target: T2, 3-phosphoinositide-dependent protein kinase 1 (Homo sapiens) (UniProt O15530); experiment: Selectivity interaction (KinomeScan (DiscoverX)) EUB0000618a PDPK1; settings: at 10 µM
T2 sequence (whole entry): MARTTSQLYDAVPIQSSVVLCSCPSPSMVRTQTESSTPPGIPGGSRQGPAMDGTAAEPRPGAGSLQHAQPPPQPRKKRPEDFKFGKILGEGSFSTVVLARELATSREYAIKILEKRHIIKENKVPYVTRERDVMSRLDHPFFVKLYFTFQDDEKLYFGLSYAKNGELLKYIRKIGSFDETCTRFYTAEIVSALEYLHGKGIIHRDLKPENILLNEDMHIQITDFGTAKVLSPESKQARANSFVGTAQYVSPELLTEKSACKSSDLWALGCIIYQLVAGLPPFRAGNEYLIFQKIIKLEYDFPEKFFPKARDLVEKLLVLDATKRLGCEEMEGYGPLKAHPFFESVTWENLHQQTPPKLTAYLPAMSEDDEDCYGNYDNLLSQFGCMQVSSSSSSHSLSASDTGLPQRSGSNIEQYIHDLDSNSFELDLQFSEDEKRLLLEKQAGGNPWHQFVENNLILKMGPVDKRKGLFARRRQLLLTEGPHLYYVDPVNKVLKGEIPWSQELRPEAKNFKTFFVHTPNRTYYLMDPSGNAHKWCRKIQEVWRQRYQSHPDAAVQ

[21] = molecular target: Ribosomal protein S6 kinase alpha-1 (Homo sapiens, UniProt Q15418); experiment: Selectivity interaction (Kinase panel (DSF assay)) EUB0001559a RPS6KA1
Sequence of Ribosomal protein S6 kinase alpha-1 (Q15418 whole entry, canonical isoform): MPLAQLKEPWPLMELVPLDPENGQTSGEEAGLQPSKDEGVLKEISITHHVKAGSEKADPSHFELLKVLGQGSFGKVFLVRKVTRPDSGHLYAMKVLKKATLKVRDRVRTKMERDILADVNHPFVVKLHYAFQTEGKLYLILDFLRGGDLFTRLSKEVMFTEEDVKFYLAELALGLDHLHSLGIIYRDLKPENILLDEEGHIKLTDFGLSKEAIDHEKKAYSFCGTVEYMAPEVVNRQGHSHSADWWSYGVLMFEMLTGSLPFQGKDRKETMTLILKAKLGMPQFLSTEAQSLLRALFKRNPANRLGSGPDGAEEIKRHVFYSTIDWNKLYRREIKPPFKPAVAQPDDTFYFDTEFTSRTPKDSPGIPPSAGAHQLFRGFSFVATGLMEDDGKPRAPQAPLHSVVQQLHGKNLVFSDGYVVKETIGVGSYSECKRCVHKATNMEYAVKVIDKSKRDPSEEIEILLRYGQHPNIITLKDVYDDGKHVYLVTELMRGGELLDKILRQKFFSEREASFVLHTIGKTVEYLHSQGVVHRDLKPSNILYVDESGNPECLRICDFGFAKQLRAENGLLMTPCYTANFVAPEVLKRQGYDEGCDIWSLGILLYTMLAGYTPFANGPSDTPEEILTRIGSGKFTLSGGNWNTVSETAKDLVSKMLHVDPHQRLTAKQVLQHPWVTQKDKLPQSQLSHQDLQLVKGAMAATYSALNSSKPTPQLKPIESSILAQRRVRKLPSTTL

[22] = tested on: Phosphatidylinositol 4,5-bisphosphate 3-kinase catalytic subunit alpha isoform (Homo sapiens), P42336 [E542K]; settings: at 10 µM

Sequence of NT-3 growth factor receptor (Q16288 32-839 limits assumed): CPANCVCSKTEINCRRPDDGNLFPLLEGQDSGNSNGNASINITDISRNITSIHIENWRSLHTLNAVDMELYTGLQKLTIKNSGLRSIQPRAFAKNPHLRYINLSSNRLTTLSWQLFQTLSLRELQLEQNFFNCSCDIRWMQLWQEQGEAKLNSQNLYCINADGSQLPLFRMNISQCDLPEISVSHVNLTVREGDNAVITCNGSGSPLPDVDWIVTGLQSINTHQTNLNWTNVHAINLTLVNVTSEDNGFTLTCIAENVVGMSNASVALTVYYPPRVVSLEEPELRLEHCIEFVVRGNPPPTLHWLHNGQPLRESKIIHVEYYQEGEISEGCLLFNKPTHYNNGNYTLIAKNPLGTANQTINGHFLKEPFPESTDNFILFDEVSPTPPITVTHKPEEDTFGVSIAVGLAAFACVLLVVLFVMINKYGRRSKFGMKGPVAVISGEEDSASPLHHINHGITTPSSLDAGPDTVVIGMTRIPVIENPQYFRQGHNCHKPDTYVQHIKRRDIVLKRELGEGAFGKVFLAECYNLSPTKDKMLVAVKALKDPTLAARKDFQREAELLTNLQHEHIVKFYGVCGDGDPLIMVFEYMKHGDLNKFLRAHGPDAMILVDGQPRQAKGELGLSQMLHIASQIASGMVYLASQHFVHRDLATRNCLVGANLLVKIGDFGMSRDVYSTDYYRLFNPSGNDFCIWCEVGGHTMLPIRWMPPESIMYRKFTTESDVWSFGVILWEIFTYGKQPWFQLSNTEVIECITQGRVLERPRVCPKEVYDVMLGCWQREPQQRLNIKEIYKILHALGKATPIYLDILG

Cc1cc([C@@H](C)Nc2ccccc2C(=O)O)c2nc(N3CCOCC3)cc(=O)n2c1 [AZD-6482]
% of control [1]: 98%

CN(C)C/C=C/C(=O)Nc1ccc(C(=O)N2CCCC(Nc3ncc(Cl)c(-c4c[nH]c5ccccc45)n3)C2)cc1 (stereo not given)
% of control [2]: 80% | % of control [3]: 99%

Cc1cc(C)cc([C@H]2c3cc(C)ccc3NC(=O)CN2C(=O)c2ccc(Br)s2)c1
% of activity ([4]; at 1 µM): 103% | % of activity ([4]; at 10 µM): 104%

Cc1cc(C)cc([C@@H]2c3cc(C)ccc3NC(=O)CN2C(=O)c2ccc(Br)s2)c1
% of activity ([5]; at 1 µM): 97.3% | % of activity ([5]; at 10 µM): 105%

COc1cc(N(C)c2ccnc3ccc(C(F)(F)F)cc23)cc(OC)c1OC
% binding [6]: 92%

CN(C)CCCOc1ccc(-c2cc(NCCCn3cccn3)nc(S(C)(=O)=O)n2)cc1
dTM [7]: < 2 K

C=CC(=O)Nc1cc(-n2c(=O)ccc3cnc4ccc(-c5ccc(NS(C)(=O)=O)cc5)cc4c32)ccc1C
% of control ([8]; at 1 µM): 100% | % of control ([8]; at 10 µM): 100%

N#Cc1cccc(-c2c[nH]c3ncnc(N4CCOCC4)c23)c1
% of control [9]: 90% | % of control [10]: 97% | % of control [11]: 88% | % of control [12]: 100% | % of control [13]: 90% | % of control [14]: 76% | % of control [15]: 100% | % of control [16]: 95% | % of control [17]: 100% | % of control [18]: 96%

O[C@H]1CC[C@H](Nc2ncc3nc(Nc4c(F)cc(F)cc4F)n([C@H]4CCOC4)c3n2)CC1
% of control [19]: 98% | % of control [20]: 100%

CN(C(=O)c1cnn2cccnc12)c1cc2c(cc1N1CCOCC1)C(=O)N(C[C@@H](F)C(C)(C)O)C2
dTM [21]: 0.5 K

CNC(=O)Nc1ccc(-c2nc(N3CC4CCC(C3)O4)c3cnn(C4CCC5(CC4)OCCO5)c3n2)cc1
% of control [22]: 14%
